PMC6838048, “A Cell-Free Approach Based on Phospholipid Characterization for Determination of the Cell Specific Unbound Drug Fraction (fu,cell)” (Pharmaceutical Research, 2019)

Legend:
Format in all cases: in vitro ADME
[1] = fu,cell by equilibrium dialysis of cell homogenate, MDCK; conditions: dog, dialysis 4 h 37°C, 10 million cells/mL homogenate, read-out: fu,MDCK Geomean
Experimental: (§1) fu,cell was measured in cassette-mode as previously described with minor modifications ([9]). Briefly, 10 million cells/mL were suspended in HBSS buffered with 10 mM HEPES and homogenized on ice by sonication (VCX 750 Sonicator, 3 mm probe, 20% intensity, 10 s). Up to 8 compounds were combined randomly and spiked into the homogenate for a final concentration of 0.5 μM. Equilibrium dialysis was performed in a Rapid Equilibirum device (Thermo Fisher Scientific) against blank HBSS buffered with 10 mM HEPES, for 4 h at 37°C on an orbital shaker at 900 rpm. Stability controls were kept at 4° and 37°C for the duration of the experiment. The concentration in both dialysis chambers was quantified by extracting the compound with acetonitrile/water (60/40) containing internal standard. Matrixes were matched with blank buffer or cell homogenate, respectively. LC-MS/MS parameters are available in Table S9. All experiments were carried out in triplicates and at least at two independent occasions.
(§2) (3), assuming the Vcell to be equal to 6.5 μL/mg protein ([6],[10]). Protein content in the cell homogenates was determined at each experiment using the BCA Protein Assay Reagent Kit (Thermo Fisher Scientific Inc.).3 DP=1/Vcell

[2] = fu,cell by equilibrium dialysis of cell homogenate, HEK293; conditions: human, dialysis 4 h 37°C, 10 million cells/mL homogenate, read-out: fu,HEK293 Geomean
Experimental: as §1
(§3) The unbound fraction in the cell homogenate (fu,hom) was determined according to Eq. (1):1 fu,hom=Cbuffer/Chom and the fraction of unbound compound in the cell (fu,cell) was calculated by correcting for homogenate dilution according to Eq. (2):2 fu,cell=1/DP∙1/fu,hom−1+1 where the dilution constant DP was calculated using Eq. (3), assuming the Vcell to be equal to 6.5 μL/mg protein ([6],[10]). Protein content in the cell homogenates was determined at each experiment using the BCA Protein Assay Reagent Kit (Thermo Fisher Scientific Inc.).3 DP=1/Vcell

[3] = fu,PL from membrane affinity to PL-covered silica beads, PC; conditions: silica beads covered with phosphatidylcholine (PC), Transil; beads coated with pure PC, 15 min incubation; read-out: fu,PC Geomean
Experimental: (§4) f u,PL was derived from membrane affinity measurements to beads covered with PLs as previously described ([6]).
(§5) Cbuffer was quantified by LC-MS/MS in samples of the supernatant that was obtained after 15 min incubation time on an orbital shaker at 1000 rpm and subsequent separation from the beads by centrifugation at 750 x g. […] Unspecific binding was evaluated by incubations into wells without added lipids.

[4] = fu,cell by equilibrium dialysis of cell homogenate, HL60; conditions: human, dialysis 4 h 37°C, 10 million cells/mL homogenate, read-out: fu,HL60 Geomean
Experimental: as §1, §3

[5] = fu,cell by equilibrium dialysis of cell homogenate, LLC-PK1; conditions: pig, dialysis 4 h 37°C, 10 million cells/mL homogenate, read-out: fu,LLCPK1 Geomean
Experimental: as §1, §3

[6] = fu,cell by equilibrium dialysis of cell homogenate, K562; conditions: human, dialysis 4 h 37°C, 10 million cells/mL homogenate, read-out: fu,K562 Geomean
Experimental: as §1, §3

[7] = fu,cell by equilibrium dialysis of cell homogenate, primary human hepatocytes; conditions: primary human hepatocyte homogenate, dialysis 4 h 37°C, 10 million cells/mL homogenate, read-out: fu,HH Geomean
Experimental: as §1, §3

[8] = fu,cell by equilibrium dialysis of cell homogenate, A549; conditions: human, dialysis 4 h 37°C, 10 million cells/mL homogenate, read-out: fu,A549 Geomean
Experimental: as §1, §3

[9] = fu,PL from membrane affinity to PL-covered silica beads, PS; conditions: silica beads covered with phosphatidylserine (PS), Transil; beads coated with pure PS, 15 min incubation; read-out: fu,PS Geomean
Experimental: as §4, §5

[10] = fu,PL from membrane affinity to PL-covered silica beads, mixed beads; conditions: for fraction unbound at 15 min: mixed beads PC:PE:PS:PI 52:22:12:14 mol%, 15 min incubation, read-out: fu,mixed bead Geomean; for fu,PL (in words): examples of Fig. 3c, individual PL beads and mixed beads
Experimental: as §4, §5

[11] = fu,PL from membrane affinity to PL-covered silica beads, PE; conditions: beads coated with pure PE, 15 min incubation; read-out: fu,PE Geomean
Experimental: as §4, §5

[12] = fu,cell by equilibrium dialysis of cell homogenate, Caco-2; conditions: human, Caco-2 cell homogenate, dialysis 4 h 37°C, 10 million cells/mL homogenate, read-out: fu,Caco-2 Geomean
Experimental: as §1, §2

Row | Compound | fraction unbound at 4 h, 0.5 μM [1] | fraction unbound at 4 h, 0.5 μM [2] | fraction unbound at 15 min [3] | fraction unbound at 4 h, 0.5 μM [4] | fraction unbound at 4 h, 0.5 μM [5] | fraction unbound at 4 h, 0.5 μM [6] | fraction unbound at 4 h, 0.5 μM [7] | fraction unbound at 4 h, 0.5 μM [8] | fraction unbound at 15 min [9] | fraction unbound at 15 min [10] | fraction unbound at 15 min [11] | fraction unbound at 4 h, 0.5 μM [12] | fu,PL (in words) [10]
1 | COc1ccccc1Oc1c(NS(=O)(=O)c2ccc(C(C)(C)C)cc2)nc(-c2ncccn2)nc1OCCO [Bosentan] | 0.036 | 0.0634 | 0.002 | 0.0579 | 0.0538 | 0.0856 | 0.0337 | 0.0519 | 0.0014 | 0.004 | 0.0019 | 0.0335 | 
2 | Cn1c(=O)c2c(ncn2C)n(C)c1=O [Caffeine] | 0.0593 | 0.248 | 0.0096 |  | 0.115 | 0.214 | 0.248 | 0.0398 | 0.0025 | 0.0145 | 0.0154 |  | 
3 | CCOc1nc2cccc(C(=O)O)c2n1Cc1ccc(-c2ccccc2-c2nnn[nH]2)cc1 [Candesartan] | 0.0968 | 0.246 | 0.0174 | 0.205 | 0.118 | 0.948 | 0.247 | 0.103 | 0.0018 | 0.0081 | 0.0055 | 0.0945 | 
4 | CCN(CC)CCCC(C)Nc1ccnc2cc(Cl)ccc12 (stereo not shown) [Chloroquine] | 0.176 | 0.0824 | 0.0014 |  | 0.0783 | 0.356 | 0.0824 | 0.0793 | 0.0006 | 0.0044 | 0.0032 | 0.0777 | 
5 | CCCNC(=O)NS(=O)(=O)c1ccc(Cl)cc1 [Chlorpropamide] | 0.349 | 0.571 | 0.0534 | 0.54 | 0.6 | 0.638 | 0.944 | 0.376 | 0.0089 | 0.0343 | 0.0109 | 0.654 | high
6 | COc1ccc([C@@H]2Sc3ccccc3N(CCN(C)C)C(=O)[C@@H]2OC(C)=O)cc1 [Diltiazem] | 0.069 | 0.0637 | 0.0023 | 0.206 | 0.0588 | 0.119 | 0.0445 | 0.0287 | 0.0016 | 0.0034 | 0.0083 | 0.1 | 
7 | COC(=O)CCc1ccc(OCC(O)CNC(C)C)cc1 (stereo not shown) [Esmolol] | 0.35 | 0.196 | 0.008 | 0.676 | 0.566 | 1 |  | 0.922 | 0.0019 | 0.0084 | 0.0126 | 0.566 | intermediate
8 | OC(Cn1cncn1)(Cn1cncn1)c1ccc(F)cc1F [Fluconazole] | 0.229 | 0.1 | 0.0428 | 0.646 | 0.159 | 1 | 0.737 | 0.159 | 0.0045 | 0.028 | 0.0081 | 0.456 | 
9 | CC(C)n1c(/C=C/C(O)CC(O)CC(=O)O)c(-c2ccc(F)cc2)c2ccccc21 (stereo not shown) [Fluvastatin] | 0.0338 | 0.0403 | 0.001 | 0.0569 | 0.0389 | 0.0838 |  | 0.0161 | 0.0034 | 0.002 | 0.0067 | 0.0245 | 
10 | Cc1cccc(C)c1OCC(=O)N[C@@H](Cc1ccccc1)[C@@H](O)C[C@H](Cc1ccccc1)NC(=O)[C@H](C(C)C)N1CCCNC1=O [Lopinavir] | 0.0119 | 0.0155 | 0.0007 | 0.0168 | 0.0047 | 0.0234 | 0.0044 | 0.0056 | 0.0011 | 0.0011 | 0.0026 | 0.0122 | low
11 | CC[C@H](C)C(=O)O[C@H]1C[C@@H](C)C=C2C=C[C@H](C)[C@H](CC[C@@H]3C[C@@H](O)CC(=O)O3)[C@H]21 [Lovastatin] | 0.0045 | 0.0074 | 0.0004 | 0.011 | 0.002 | 0.0055 | 0.0013 | 0.0012 | 0.0002 | 0.0002 | 0.0011 | 0.0024 | 
12 | Cc1ccccc1N1C(=O)c2cc(S(N)(=O)=O)c(Cl)cc2NC1C (stereo not shown) [Metolazone] | 0.37 | 0.226 | 0.0059 | 0.445 | 0.144 | 0.485 | 0.0709 | 0.416 | 0.0093 | 0.0069 | 0.0085 | 0.133 | 
13 | COCCc1ccc(OCC(O)CNC(C)C)cc1 (stereo not shown) [Metoprolol] | 0.202 | 0.0906 | 0.0101 | 0.339 | 0.34 | 1 | 0.374 | 0.0881 | 0.0081 | 0.0148 | 0.0099 | 0.174 | 
14 | CCC(C)(C)C(=O)O[C@H]1C[C@@H](C)C=C2C=C[C@H](C)[C@H](CC[C@@H]3C[C@@H](O)CC(=O)O3)[C@H]21 [Simvastatin] |  | 0.0015 | 0.001 | 0.0023 | 0.0009 | 0.0032 |  | 0.0002 | 0.0001 | 0.0001 | 0.0001 |  | 
